Source: patent US20220213074A1, “ABHD12 INHIBITORS AND METHODS OF MAKING AND USING SAME” (H. Lundbeck A/S, priority 2019, published 2022)

Target: T1, ABHD12 (Mus musculus, UniProt Q99LR1)
T1 construct: from tissue; host or cells: mouse brain (membrane fraction)
T1 sequence (Q99LR1 1-398): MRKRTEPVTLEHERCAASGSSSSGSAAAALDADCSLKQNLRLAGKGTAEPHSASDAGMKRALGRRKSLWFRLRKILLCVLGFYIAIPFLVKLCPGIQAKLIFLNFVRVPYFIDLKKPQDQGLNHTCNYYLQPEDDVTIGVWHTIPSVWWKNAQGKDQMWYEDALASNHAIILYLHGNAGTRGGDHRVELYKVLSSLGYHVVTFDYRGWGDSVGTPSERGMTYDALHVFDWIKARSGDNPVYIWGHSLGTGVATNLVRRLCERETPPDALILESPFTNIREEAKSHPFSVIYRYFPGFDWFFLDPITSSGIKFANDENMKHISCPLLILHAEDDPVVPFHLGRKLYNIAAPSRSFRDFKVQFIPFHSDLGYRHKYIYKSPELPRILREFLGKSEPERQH
Test: In vitro competitive activity-based protein profiling (FP-Rhodamine probe, gel-based) in mouse brain membrane proteomes
Assay type: biochemical
Conditions: mouse brain membrane proteome, 30 min preincubation at 37° C.; for inhibition at 10 µM: 10 μM inhibitor (stated in cell); for inhibition at 1 µM: 1 μM inhibitor; for inhibition at 50 µM: 50 μM inhibitor (stated in cell)
Method: Compounds were tested to assess their ABHD12 activity using the following assay.
Mouse brain membrane proteomes (50 μL, 1.0 mg/mL total protein concentration) were preincubated with varying concentrations of inhibitors at 37° C. After 30 min, FP-Rhodamine probe (1.0 μL, 50 μM in DMSO) was added and the mixture was incubated for 30 min at room temperature. Reactions were quenched with SDS loading buffer (15 μL-4×) and proteins were resolved by SDS-PAGE gel (10% acrylamide). Following in-gel fluorescence imaging, enzyme activity was determined by measuring intensity of gel bands corresponding to ABHD12 using ImageJ software.

Row | inhibition at 1 µM [%] | IC50 [nM] | SMILES | also measured
1 |  |  | O=C(Nc1cccnc1)NC1CCN(c2cccc(C(F)(F)F)n2)CC1 [Example 1, 1-(Pyridin-3-yl)-3-(1-(6-(trifluoromethyl)pyridin-2-yl)piperidin-4-yl)urea] | inhibition at 10 µM: 50 to 75%
2 | ≥ 75 | 100 to 1000 | O=C(Nc1cccnc1)NC1CCN(c2nccc(Oc3ccc(Cl)c(OC(F)(F)F)c3)c2Cl)CC1 [Example 2, 1-(1-(3-Chloro-4-(4-chloro-3-(trifluoromethoxy)phenoxy)pyridin-2-yl)piperidin-4-yl)-3-(pyridin-3-yl)urea] | 
3 | 0 to 25 |  | CC(=O)c1ccc(N2CCC(NC(=O)Nc3cccnc3)CC2)nc1 [Example 3, 1-(1-(5-Acetylpyridin-2-yl)piperidin-4-yl)-3-(pyridin-3-yl)urea] | 
4 | 25 to 50 |  | O=C(Nc1cccnc1)NC1CCN(c2cc(-c3ccc(OC(F)(F)F)cc3)ccn2)CC1 [Example 4, 1-(Pyridin-3-yl)-3-(1-(4-(4-(trifluoromethoxy)phenyl)pyridin-2-yl)piperidin-4-yl)urea] | 
5 | 25 to 50 |  | O=C(Nc1cccnc1)NC1CCN(c2nccc(Oc3ccc(F)c(OC(F)(F)F)c3)c2Cl)CC1 [Example 5, 1-(1-(3-Chloro-4-(4-fluoro-3-(trifluoromethoxy)phenoxy)pyridin-2-yl)piperidin-4-yl)-3-(pyridin-3-yl)urea] | 
6 | ≥ 75 | 100 to 1000 | C#Cc1ccc(Oc2ccnc(N3CCC(NC(=O)Nc4cccnc4)CC3)c2Cl)c(Cl)c1 [Example 6, 1-(1-(3-Chloro-4-(2-chloro-4-ethynylphenoxy)pyridin-2-yl)piperidin-4-yl)-3-(pyridin-3-yl)urea] | 
7 | 25 to 50 |  | O=C(Nc1cccnc1)NC1CCN(c2cc(Oc3ccc(C(F)(F)F)cc3)ccn2)CC1 [Example 7, 1-(Pyridin-3-yl)-3-(1-(4-(4-(trifluoromethyl)phenoxy)pyridin-2-yl)piperidin-4-yl)urea] | 
8 |  |  | O=C(Nc1cccnc1)NC1CCN(c2nccc(C(F)(F)F)c2Cl)CC1 [Example 8, 1-(1-(3-Chloro-4-(trifluoro-methyl)pyridin-2-yl)piperidin-4-yl)-3-(pyridin-3-yl)urea] | inhibition at 10 µM: 50 to 75%
9 | ≥ 75 | 100 to 1000 | Cc1c(Oc2ccc(OC(F)(F)F)cc2)ccnc1N1CCC(NC(=O)Nc2cccnc2)CC1 [Example 9, 1-(1-(3-Methyl-4-(4-(trifluoro-methoxy)phenoxy)pyridin-2-yl)piperidin-4-yl)-3-(pyridin-3-yl) urea] | 
10 | ≥ 75 | ≤ 100 | O=C(Nc1cccnc1)NC1CCN(c2nccc(Oc3ccc(OC(F)(F)F)cc3)c2Cl)CC1 [Example 10, 1-(1-(3-Chloro-4-(4-(trifluoro-methoxy)phenoxy)pyridin-2-yl)pipcridin-4-yl)-3-(pyridin-3-yl) urea] | 
11 |  |  | O=C(Nc1cccnc1)NC1CCN(c2ccc(Cl)cn2)CC1 [Example 11, 1-(1-(5-Chloropyridin-2-yl)piperidin-4-yl)-3-(pyridin-3-yl) urea] | inhibition at 50 µM: ≥ 75%
12 |  |  | N#Cc1ccnc(N2CCC(NC(=O)Nc3cccnc3)CC2)c1 [Example 12, 1-(1-(4-Cyanopyridin-2-yl)piperidin-4-yl)-3-(pyridin-3-yl) urea] | inhibition at 50 µM: 25 to 50%
13 | 25 to 50 |  | O=C(Nc1cccnc1)NC1CCN(c2nccc(Oc3ccccc3OC(F)(F)F)c2Cl)CC1 [Example 13, 1-(1-(3-Chloro-4-(2-(trifluoro-methoxy)phenoxy)pyridin-2-yl)piperidin-4-yl)-3-(pyridin-3-yl)urea] | 
14 | ≥ 75 | 100 to 1000 | O=C(Nc1cccnc1)NC1CCN(c2nccc(Oc3ccc(OC(F)(F)F)c(F)c3)c2Cl)CC1 [Example 14, 1-(1-(3-Chloro-4-(3-fluoro-4-(trifluoro-methoxy)phenoxy)pyridin-2-yl)piperidin-4-yl)-3-(pyridin-3-yl)urea] | 
15 | ≥ 75 | 100 to 1000 | O=C(Nc1cccnc1)NC1CCN(c2nccc(Oc3ccc(OC(F)(F)F)c(Cl)c3)c2Cl)CC1 [Example 15, 1-(1-(3-Chloro-4-(3-chloro-4-(trifluoro-methoxy)phenoxy)pyridin-2-yl)piperidin-4-yl)-3-(pyridin-3-yl)urea] | 
16 | ≥ 75 | 100 to 1000 | Cc1cc(OC(F)(F)F)ccc1Oc1ccnc(N2CCC(NC(=O)Nc3cccnc3)CC2)c1Cl [Example 16, 1-(1-(3-Chloro-4-(2-methyl-4-(trifluoro-methoxy)phenoxy)pyridin-2-yl)piperidin-4-yl)-3-(pyridin-3-yl)urea] | 
17 | 50 to 75 |  | O=C(Nc1cccnc1)NC1CCN(c2nccc(Oc3cccc(OC(F)(F)F)c3)c2Cl)CC1 [Example 17, 1-(1-(3-Chloro-4-(3-(trifluoro-methoxy)phenoxy)pyridin-2-yl)piperidin-4-yl)-3-(pyridin-3-yl)urea] | 
18 | 0 to 25 |  | COc1ccnc(N2CCC(NC(=O)Nc3cccnc3)CC2)c1 [Example 18] | 
19 |  |  | O=C(Nc1cccnc1)NC1CCN(c2cc(OCC3CC3)ccn2)CC1 [Example 19] | inhibition at 50 µM: 50 to 75%
20 | 50 to 75 |  | N#Cc1c(Oc2ccc(C(F)(F)F)cc2)ccnc1N1CCC(NC(=O)Nc2cccnc2)CC1 [Example 20, 1-(1-(3-Cyano-4-(4-(trifluoro-methyl)phenoxy)pyridin-2-yl)piperidin-4-yl)-3-(pyridin-3-yl) urea] | 
21 | 0 to 25 |  | O=C(Nc1cccnc1)NC1CCN(c2nccc(OC3CCOCC3)c2Cl)CC1 [Example 21, 1-(1-(3-Chloro-4-((tetrahydro-2H-pyran-4-yl)oxy)pyridin-2-yl)piperidin-4-yl)-3-(pyridin-3-yl)urea] | 
22 |  |  | CC(C)OC(=O)N1CCC(Oc2ccnc(N3CCC(NC(=O)Nc4cccnc4)CC3)c2)CC1 [Example 22, Isopropyl 4-((2-(4-(3-(pyridin-3-yl)ureido)piperidin-1-yl)pyridin-4-yl)oxy) piperidine-1-carboxylate] | inhibition at 50 µM: 25 to 50%
23 | ≥ 75 | 100 to 1000 | O=C(Nc1cccnc1)NC1CCN(c2ncccc2Oc2ccc(OC(F)(F)F)cc2Cl)CC1 [Example 23, 1-(1-(3-(2-Chloro-4-(trifluoro-methoxy)phenoxy)pyridin-2-yl)piperidin-4-yl)-3-(pyridin-3-yl) urea] | 
24 | 25 to 50 |  | O=C(Nc1cccnc1)NC1CCN(c2nc(Oc3ccc(OC(F)(F)F)cc3Cl)ccc2Cl)CC1 [Example 24, 1-(1-(3-Chloro-6-(2-chloro-4-(trifluoro-methoxy)phenoxy)pyridin-2-yl)piperidin-4-yl)-3-(pyridin-3-yl)urea] | 
25 | 0 to 25 |  | C#Cc1ccc(N2CCC(NC(=O)Nc3cccnc3)CC2)nc1 [Example 25, 1-(1-(5-Ethynyl-pyridin-2-yl)piperidin-4-yl)-3-(pyridin-3-yl)urea] | 
26 | ≥ 75 | 100 to 1000 | O=C(Nc1cccnc1)NC1CCN(c2nccc(-c3cccc(OC(F)(F)F)c3)c2Cl)CC1 [Example 26, 1-(1-(3-Chloro-4-(3-(trifluoro-methoxy)phenyl)pyridin-2-yl)piperidin-4-yl)-3-(pyridin-3-yl)urea] | 
27 | ≥ 75 | 100 to 1000 | O=C(Nc1cccnc1)NC1CCN(c2nccc(-c3ccc(OC(F)(F)F)cc3)c2Cl)CC1 [Example 27, 1-(1-(3-Chloro-4-(4-(trifluoro-methoxy)phenyl)pyridin-2-yl)piperidin-4-yl)-3-(pyridin-3-yl)urea] | 
28 | 25 to 50 |  | O=C(Nc1cccnc1)NC1CCN(c2nccc(OCc3ccc(OC(F)(F)F)cc3)c2Cl)CC1 [Example 28, 1-(1-(3-Chloro-4-((4-(trifluoro-methoxy)benzyl)oxy)pyridin-2-yl)piperidin-4-yl)-3-(pyridin-3-yl)urea] | 
29 | 25 to 50 |  | O=C(Nc1cccnc1)NC1CCN(c2nccc(OCc3cccc(OC(F)(F)F)c3)c2Cl)CC1 [Example 29, 1-(1-(3-Chloro-4-((3-(trifluoro-methoxy)benzyl)oxy)pyridin-2-yl)piperidin-4-yl)-3-(pyridin-3-yl)urea] | 
